For one assay, the system named is D39 ΔlytA. The assay is described as follows: Microtiter plate lysis assay, strain D39 ΔlytA. The format is cell-based, S. pneumoniae. The conditions noted are these: compound 0.1%, 15 min at 36° C. An excerpt:
(§1) Mitrotiter Assay: A rapid microtiter plate assay was devised for examining lytA-dependent lysis of pneumococci by different detergents or surfactants. Two pairs of isogenic strains of S. pneumoniae were used in the assay; one member of each pair was wild type for the lytA gene while the other strain carried a deletion in the lytA gene Thus, if lysis were dependent on an active lytA function, that detergent would not lyse the mutant strains. The four strains, R6X, R6X ΔlytA, D39 and D39 ΔlytA, were cultivated in HySoy medium to approximately mid-log phase (OD600˜0.2-0.8; OD600=Optical Density at 600 nm). Cells were then centrifuged and cell pellets were resuspended in HySoy medium. To each well of the microtiter plate, 100 μL, of cell suspension was added, along with 10 μL, of detergent stocks or water as a control. After about 15 minutes at 36° C., the OD600 of the samples was measured with a Spectramax® spectrophotometer (Molecular Devices, Sunnyvale, Calif.).
(§2) Isogenic pairs of strains containing the lytA mutation were grown in a Hy-Soy based medium. The cells were harvested and dispensed into wells in a microttiter plate. The test compound was added and the culture was incubated. After 15 min at 36° C., the optical density (OD600) of each well was determined using a SpectraMax® plate reader (Molecular Devices, Sunnyvale, CALIF.)(see Tables 17 and 18, which summarize results from two separate tests for exemplary compounds).

The test system of a further assay is R6X. The assay is described as follows: Microtiter plate lysis assay, strain R6X (wild type lytA). The format is cell-based, S. pneumoniae. The conditions noted are these: compound 0.1%, 15 min at 36° C.
Description: as §1, §2

Another assay concerns R6X ΔlytA. In words: Microtiter plate lysis assay, strain R6X ΔlytA. The format is cell-based, S. pneumoniae. The conditions noted are these: compound 0.1%, 15 min at 36° C.
Description: as §1, §2

Another assay has as its system D39. In words: Microtiter plate lysis assay, strain D39 (wild type lytA). The format is cell-based, S. pneumoniae. To be noted: compound 0.1%, 15 min at 36° C. Here is the method: as §1, with “Two pairs of isogenic strains of S. pneumoniae were used in the assay; one member of each pair was wild type for the lytA gene while the other strain carried a deletion in the lytA gene Thus, if lysis were dependent on an active lytA function, that detergent would not lyse the mutant strains.” left out
(§3) Isogenic pairs of strains containing the lytA mutation were grown in a Hy-Soy based medium. The cells were harvested and dispensed into wells in a microttiter plate. The test compound was added and the culture was incubated.

Assay [1] has as its system Wild-type cells (R6X, D39). The assay is described as follows: Microtiter plate lysis assay, wild-type cells. The format is cell-based, S. pneumoniae. To be noted: freshly prepared or frozen and thawed cells; about 15 minutes at 36° C.
Description: as §1

Assay [2] relates to Streptococcus pneumoniae cells. The assay is described as follows: Screening for non-animal derived lytic agents (serotypes 1 and 6B PS release by SEC-HPLC; lytA mutants). The conditions noted are these: screening studies with serotypes 1 and 6B and lytA mutants. The format is cell-based. Here is the method:
Cell Lysis: Compounds to be tested were added to fermentation broth at a final concentration of 0.1 to 0.01% (v/v) and the solution was allowed to incubate at 37° C. for one hour. The solution was then stored at 2-8° C. overnight. The following morning the solution was centrifuged to remove all cell debris. The cell-free broth was analyzed by SEC-HPLC to determine the concentration of released polysaccharide. The lysis could be performed at any temperature between 2-37° C., preferably at a pH range of 6.0-7.5. The concentration of the detergent was typically between 0.05-0.2% depending on the particular detergent.
S. pneumoniae serotypes 1 and 6B were separately grown in Hy-Soy based media. The cultures were separately harvested and separately dispensed into tubes. […] After overnight incubation, the tubes were centrifuged and the PS content of the lysates for each serotype were determined by SEC-HPLC and compared to DOC.
as §3
For orientation: Size exclusion chromatography separates by hydrodynamic size, large species first.

The test system of assay [3] is ΔlytA cells (R6X ΔlytA, D39 ΔlytA). The assay is described as follows: Microtiter plate lysis assay, ΔlytA cells. To be noted: freshly prepared or frozen and thawed cells; about 15 minutes at 36° C. The format is cell-based, S. pneumoniae.
Description: as §1

As for `C[C@H](CCC(=O)O)[C@H]1CC[C@H]2[C@@H]3CC[C@@H]4C[C@H](O)CC[C@]4(C)[C@H]3C[C@H](O)[C@]12C` [Deoxycholic acid], the figures for the “Change in OD600, D39 ΔlytA” value in the assay with D39 ΔlytA (Test 1) and in the assay with D39 ΔlytA (Test 2) were 47% and 41%, respectively. The “Change in OD600, R6X” value in the assay with R6X (Test 1) stood at 100%; in the assay with R6X (Test 2), 103%. The results for the “Change in OD600, R6X ΔlytA” value in the assay on R6X ΔlytA (Test 1) and with R6X ΔlytA (Test 2) were 34% and 20%, respectively. Besides, the entries for the “Change in OD600, D39” value in the assay on D39 (Test 1) and with D39 (Test 2) were 99% and 101%, respectively.

In the case of `CCCCCCC(=O)O` [Heptanoic acid], in the assay with D39 ΔlytA (Test 1), the “Change in OD600, D39 ΔlytA” value is given as −30%. The “Change in OD600, R6X” value in the assay with R6X (Test 1) stood at 25%. Moreover, in the assay with R6X ΔlytA (Test 1), the “Change in OD600, R6X ΔlytA” value is recorded as −57%. In the assay with D39 (Test 1), the “Change in OD600, D39” value is 7%.

Consider `C[C@H](CCC(=O)O)[C@H]1CC[C@H]2[C@@H]3CC[C@@H]4C[C@H](O)CC[C@]4(C)[C@H]3CC[C@]12C` [Lithocholic acid], for which, in the assay with D39 ΔlytA (Test 1), the “Change in OD600, D39 ΔlytA” value was −2%. Further, the “Change in OD600, R6X” value with R6X (Test 1) was determined as 20%. Further, the “Change in OD600, R6X ΔlytA” value with R6X ΔlytA (Test 1) came out at 16%. Further, the “Change in OD600, D39” value in the assay on D39 (Test 1) is given as 8%.

For the compound `CCCCCCCCCCCCN(C)CC(=O)O` [N-lauryl sarcosine], the “Change in OD600, D39 ΔlytA” value is reported as −44% in the assay on D39 ΔlytA (Test 1) and 14% with D39 ΔlytA (Test 2). Also, the “Lysis of wild-type cells (OD600 versus medium blank)” value (from here on “Lysis … (OD600 versus medium blank)”) in assay [1] is “lysis had occurred”. The “Change in OD600, R6X” value is 100% with R6X (Test 1) and 102% in the assay with R6X (Test 2). The “Change in OD600, R6X ΔlytA” value is −34% in the assay with R6X ΔlytA (Test 1) and −40% in the assay on R6X ΔlytA (Test 2). The “Lytic activity compared to DOC (outcome of the screening studies)” value (from here on “Lytic activity compared to DOC”) in assay [2] is “non-animal derived lytic agent alternatives to DOC”. Besides, the “Change in OD600, D39” value with D39 (Test 1) is reported as 89%; in the assay on D39 (Test 2) it was 101%. Moreover, the “Lysis of ΔlytA cells” value in assay [3] is listed as “did not lyse”.

In the case of `CCCCCCCCS(=O)(=O)O` [Octanesulfonic acid], the “Change in OD600, D39 ΔlytA” value is 16% in the assay with D39 ΔlytA (Test 1) and −3% in the assay on D39 ΔlytA (Test 2). In addition, the “Change in OD600, R6X” value was found to be 43% with R6X (Test 1) and 13% with R6X (Test 2). Also, the entries for the “Change in OD600, R6X ΔlytA” value in the assay with R6X ΔlytA (Test 1) and in the assay with R6X ΔlytA (Test 2) were 6% and 3%, respectively. The “Change in OD600, D39” value with D39 (Test 1) was 34%; in the assay with D39 (Test 2), 18%.

Take `CCCCCCCCCCCCOS(=O)(=O)[O-].[Na+]` [SDS, sodium dodecyl sulfate]: the “Change in OD600, D39 ΔlytA” value in the assay on D39 ΔlytA (Test 1) is 36%; in the assay on D39 ΔlytA (Test 2) it was 16%. Further, the “Lysis … (OD600 versus medium blank)” value in assay [1] is recorded as “lysis had occurred”. Further, the “Change in OD600, R6X” value in the assay with R6X (Test 1) came out at 99%; in the assay on R6X (Test 2), 102%. The “Change in OD600, R6X ΔlytA” value in the assay on R6X ΔlytA (Test 1) was 28%; with R6X ΔlytA (Test 2) it was −13%. In assay [2], the “Lytic activity compared to DOC” value is given as “non-animal derived lytic agent alternatives to DOC”. Also, the “Change in OD600, D39” value is 95% in the assay on D39 (Test 1) and 100% in the assay with D39 (Test 2). For the same compound, the “Lysis of ΔlytA cells” value in assay [3] is reported as “did not lyse”.

With `CCCCCCCC/C=C\CCCCCCCC(=O)OCCOCC(OCCO)C1OCC(OCCO)C1OCCO` (centres unmarked) [Tween 80], the “Change in OD600, D39 ΔlytA” value in the assay with D39 ΔlytA (Test 1) was found to be 19%. In the assay with R6X (Test 1), the “Change in OD600, R6X” value was found to be 36%. Besides, the “Change in OD600, R6X ΔlytA” value in the assay with R6X ΔlytA (Test 1) worked out at 14%. Also, in the assay on D39 (Test 1), the “Change in OD600, D39” value is 20%.

In the case of `C[C@H](CCC(=O)O)[C@H]1CC[C@H]2[C@@H]3[C@H](O)C[C@@H]4C[C@H](O)CC[C@]4(C)[C@H]3CC[C@]12C` [chenodeoxycholate], the “Lytic activity compared to DOC” value in assay [2] was “non-animal derived lytic agent alternatives to DOC”.

As to `C[C@H](CCC(=O)O)[C@H]1CC[C@H]2[C@@H]3[C@H](O)C[C@@H]4C[C@H](O)CC[C@]4(C)[C@H]3C[C@H](O)[C@]12C` [cholate], in assay [2], the “Lytic activity compared to DOC” value was “non-animal derived lytic agent alternatives to DOC”.

For `CCCCCCCCCCS(=O)(=O)O` [decanesulfonic acid], in assay [2], the “Lytic activity compared to DOC” value is reported as “non-animal derived lytic agent alternatives to DOC”.

In the case of `C[C@H](CCC(=O)NCC(=O)O)[C@H]1CC[C@H]2[C@@H]3CC[C@@H]4C[C@H](O)CC[C@]4(C)[C@H]3C[C@H](O)[C@]12C` [glycodeoxycholate], in assay [2], the “Lytic activity compared to DOC” value is “non-animal derived lytic agent alternatives to DOC”.

`C[C@H](CCC(=O)O)[C@H]1CC[C@H]2[C@@H]3C[C@H](O)[C@@H]4C[C@H](O)CC[C@]4(C)[C@H]3CC[C@]12C` [hyodeoxycholate]: the “Lytic activity compared to DOC” value in assay [2] is listed as “non-animal derived lytic agent alternatives to DOC”.

Consider `CCCCCCCCCCCCN(CCC(=O)O)CCC(=O)O` [lauryl iminodipropionate], for which the “Lytic activity compared to DOC” value in assay [2] was “non-animal derived lytic agent alternatives to DOC”.

In the case of `C[C@H](CCC(=O)NCCS(=O)(=O)O)[C@H]1CC[C@H]2[C@@H]3[C@H](O)C[C@@H]4C[C@H](O)CC[C@]4(C)[C@H]3CC[C@]12C` [taurochenodeoxycholate], the “Lytic activity compared to DOC” value in assay [2] is given as “non-animal derived lytic agent alternatives to DOC”.

With `C[C@H](CCC(=O)NCCS(=O)(=O)O)[C@H]1CC[C@H]2[C@@H]3CC[C@@H]4C[C@H](O)CC[C@]4(C)[C@H]3C[C@H](O)[C@]12C` [taurodeoxycholate], in assay [2], the “Lytic activity compared to DOC” value is given as “non-animal derived lytic agent alternatives to DOC”.

For Tauroglycocholic acid, the “Change in OD600, D39 ΔlytA” value with D39 ΔlytA (Test 1) is −20%. The “Change in OD600, R6X” value in the assay with R6X (Test 1) was 51%. Moreover, the “Change in OD600, R6X ΔlytA” value with R6X ΔlytA (Test 1) was −16%. The “Change in OD600, D39” value in the assay with D39 (Test 1) came out at 47%.

On to Triton ® X-100, for which the “Change in OD600, D39 ΔlytA” value was 30% with D39 ΔlytA (Test 1) and 4% in the assay on D39 ΔlytA (Test 2). The “Lysis … (OD600 versus medium blank)” value in assay [1] is recorded as “lysis had occurred”. The “Change in OD600, R6X” value in the assay on R6X (Test 1) worked out at 91%; in the assay on R6X (Test 2) it was 101%. Besides, the “Change in OD600, R6X ΔlytA” value was 22% in the assay with R6X ΔlytA (Test 1) and −19% in the assay on R6X ΔlytA (Test 2). Further, the “Lytic activity compared to DOC” value in assay [2] was “non-animal derived lytic agent alternatives to DOC”. For the same compound, the “Change in OD600, D39” value is 97% in the assay on D39 (Test 1) and 100% in the assay on D39 (Test 2). The “Lysis of ΔlytA cells” value in assay [3] is reported as “did not lyse”.

Turning to “tert-Octylphenoxy poly(oxyethylene)ethanol [Igepal® CA-630]”, in assay [2], the “Lytic activity compared to DOC” value is listed as “non-animal derived lytic agent alternatives to DOC”.
